Reference: ChEMBL document CHEMBL5252621, “Effective Combination Therapies for the Treatment of HER2 Cancer” (2023)

Legend:
HCC1954 [1] = assay: Antitumor activity against human HCC1954 cells xenografted in NCR nude mouse model assessed as tumor growth inhibition at 25 mg/kg via oral gavage administered for 28 days by caliper method; format: functional; conditions: HCC1954, 672 h, time 28 day, read-out: TGI
HCC1954 [2] = assay: Antitumor activity against human HCC1954 cells xenografted in NCR nude mouse model assessed as tumor growth inhibition at 25 mg/kg via oral gavage administered for 28 days in presence of trastuzumab/pertuzumab by caliper method; format: functional; conditions: HCC1954, 672 h, time 28 day, read-out: TGI

`C[C@H](Nc1ccc2c(c1)OCCn1cc(N3C(=O)OC[C@H]3C(F)F)nc1-2)C(N)=O` [INAVOLISIB] showed an inhibition in vivo at 25 mg/kg (HCC1954 [1]) of 122% and an inhibition in vivo at 25 mg/kg (HCC1954 [2]) of 148%.
